From US10561720B2, “Pharmaceutical compositions, comprising a combination of select carriers, vitamins, tannins and flavonoids as antigen-specific immuno-modulators” (EpitoGenesis, Inc., priority 2011, dated 2020) come the findings set out here.

One data set deals with BALB/c mice. As to the kind of experiment: cytokine responses in iliac lymph nodes after mucosal (IN/SL) and systemic (IM) vaccinations. Format: in vivo. The settings on record: two mucosal (IN/SL) and one systemic (IM) boosting vaccinations vs. three IM vaccinations with Imject Alum; FIG. 4.
A further data set relates to mice. As to the kind of experiment: serum TNFα and IL-6 at 6 hours following a single IM injection. The class given is in vivo. The note with it: 6 hours after single IM vaccination; vs. NIDS or no adjuvant; FIG. 8.
Another data set deals with murine air pouch model. As to the kind of experiment: murine air pouch model of local cytotoxicity, multiplex Luminex of pouch fluid. Format: in vivo, mice. The note with it: compared to injection of NIDS, FIG. 7. The protocol: A local cytotoxicity test was performed by employing the murine air pouch model.
A further data set has as its system Female BALB/c mice. The data set is described as follows: Example 5: IM vaccination with gp120 BaL in oleic acid formulations, serum gp120-specific IgG1 ELISA at 2WP2. The settings on record: 40% oleic acid, compared to oleic acid plus EGCG, VA plus EGCG alone or no adjuvant, FIG. 11. Format: in vivo. Here is the method:
Groups of 4 female BALB/C mice were vaccinated intra-muscularly with various vaccine formulations containing 2.5 ug gp120 from the BaL Glade of HIV-1 twice at a 3 weeks interval. Serum gp120-specific IgG1 titers were measured by ELISA at 2 weeks post second vaccination (2WP2). The mice were vaccinated with combinations of retinyl palmitate (RP; 54 IU), epigallo catechin gallate (EGCG; 120 ug) in either 40% oleic acid, each alone or in various combinations.
A general note: ELISA stands for enzyme-linked immunosorbent assay.

Where [1] appears, read: air pouch supernatant 6 hours after injection.

For poly (I:C), the “local TH1 and TH2 cytokine responses in iliac lymph nodes” value in the data set with BALB/c mice was “enhanced”. Further, in the data set on mice, the “serum IL-6” value is “significantly enhanced” and the “serum TNFα” value was “significantly enhanced”. For the same molecule, in the data set on murine air pouch model (air pouch supernatant 6 hours after injection of seven mouse vaccine dose equivalents), the TNFα result is given as “Significantly higher”. For the same molecule, in the data set with murine air pouch model (setting [1]), the G-CSF result is listed as “Significantly higher”, the IL-6 entry was “Significantly higher”, the IP-10 entry is given as “Significantly higher” and the KC result was “Significantly higher”. Also, in the data set on murine air pouch model (setting [1]), the MCP-1 entry is listed as “Significantly higher”, the MIP1-a entry is recorded as “Significantly higher”, the MIP-1b result is recorded as “Significantly higher” and the MIP-2 result is given as “Significantly higher”. Besides, the RANTES result in the data set on murine air pouch model (setting [1]) is reported as “Significantly higher”.
Turning to `CCCCCCCC/C=C\CCCCCCCC(=O)O` [oleic acid], the “serum IgG1 antigen-specific responses” value with Female BALB/c mice is “enhanced”.
